Data reported in patent US4340609A, “Amidinourea derivative veterinary compositions for suppression of parasitemia” (William H. Rorer, Inc., priority 1980, dated 1982).
Where two headings read alike, the source gives them in different places.

Tested on: plasmodium berghei
Assay: suppression of parasitemia in mice infected with plasmodium berghei
Format: in vivo
Details: for ED50: Plasmodium berghei, sc; for ED50 / Mean % Parasitemia / Mean % Suppression / % died: mice
Experimental: Five representative amidinoureas were tested in mice infected with plasmodium berghei. The five compounds tested are the following:
Groups of 10 mice each were used in seven doses totaling 70 mice per compound. The protozoal infection was induced by intraperitoneal injection of 5,000,000 parasitized blood cells from a donor. The compound was administered subcutaneously in doses ranging from 0.15 to 10 mg. per kg., suspended on 0.5% methacel solution (doses expressed as base). The compound was repeatedly injected on the day of inoculation (day 1), day 2 and day 3. Blood smears were performed on days 4, 5, 6 and 10.
Untreated control but infected mice developed fulminating parasitemia of as high as 35% on day 10 and deaths occurred from day 12 to 14.

[1] = s.c., 1.0 mg/kg on days 1-3, 4th day
[2] = s.c., 1.0 mg/kg on days 1-3, 5th day
[3] = s.c., 1.0 mg/kg on days 1-3, 6th day
[4] = s.c., 1.0 mg/kg on days 1-3, 10th day
[5] = s.c., 2.0 mg/kg on days 1-3, 4th day
[6] = s.c., 2.0 mg/kg on days 1-3, 5th day
[7] = s.c., 2.0 mg/kg on days 1-3, 6th day
[8] = s.c., 2.0 mg/kg on days 1-3, 10th day
[9] = s.c., 10.0 mg/kg on days 1-3, 4th day
[10] = s.c., 10.0 mg/kg on days 1-3, 5th day
[11] = s.c., 10.0 mg/kg on days 1-3, 6th day
[12] = s.c., 10.0 mg/kg on days 1-3, 10th day
[13] = s.c., .15 mg/kg on days 1-3, 4th day
[14] = s.c., .15 mg/kg on days 1-3, 5th day
[15] = s.c., .15 mg/kg on days 1-3, 6th day
[16] = s.c., .15 mg/kg on days 1-3, 10th day
[17] = s.c., .20 mg/kg on days 1-3, 4th day
[18] = s.c., .20 mg/kg on days 1-3, 5th day
[19] = s.c., .20 mg/kg on days 1-3, 6th day
[20] = s.c., .20 mg/kg on days 1-3, 10th day
[21] = s.c., .30 mg/kg on days 1-3, 4th day
[22] = s.c., .30 mg/kg on days 1-3, 5th day
[23] = s.c., .30 mg/kg on days 1-3, 6th day
[24] = s.c., .30 mg/kg on days 1-3, 10th day
[25] = s.c., .50 mg/kg on days 1-3, 4th day
[26] = s.c., .50 mg/kg on days 1-3, 5th day
[27] = s.c., .50 mg/kg on days 1-3, 6th day
[28] = s.c., .50 mg/kg on days 1-3, 10th day

## CNC(=N)NC(=O)Nc1c(C)cc(Br)cc1Cl.Cl [Compound C, 1-(4-bromo-2-chloro-6-methylphenyl)-3-methylamidinourea hydrochloride]
96 h, s.c., levels of parasitemia, 4th day, read-out: SED50 (Suppressant Effective Dose50)
  ED50: 1.12 mg/kg
120 h, s.c., levels of parasitemia, 5th day, read-out: SED50 (Suppressant Effective Dose50)
  ED50: 1.12 mg/kg
144 h, s.c., levels of parasitemia, 6th day, read-out: SED50 (Suppressant Effective Dose50)
  ED50: 1.39 mg/kg
240 h, s.c., levels of parasitemia, 10th day, read-out: SED50 (Suppressant Effective Dose50)
  ED50: 3.99 mg/kg
Day 4 to day 10, read-out: HIGHEST SED50
  ED50: 3.99 mg/kg
Day 4 to day 10, read-out: LOWEST SED50
  ED50: 1.12 mg/kg
Factor of change, day 4 to day 10, duration of action
  FACTOR (HIGHEST SED50 ÷ LOWEST SED50): 3.56
[1]
  Mean % Parasitemia: 2.75%
  Mean % Suppression: 47.6%
[2]
  Mean % Parasitemia: 3.60%
  Mean % Suppression: 50.7%
[3]
  Mean % Parasitemia: 5.20%
  Mean % Suppression: 44.1%
[4]
  Mean % Parasitemia: 28.30%
  Mean % Suppression: 20.3%
s.c., 1.0 mg/kg on days 1-3, 12th day
  % died: 20%
s.c., 1.0 mg/kg on days 1-3, 13th day
  % died: 60%
s.c., 1.0 mg/kg on days 1-3, 14th day
  % died: 60%
[5]
  Mean % Parasitemia: 1.50%
  Mean % Suppression: 71.4%
[6]
  Mean % Parasitemia: 1.90%
  Mean % Suppression: 74.0%
[7]
  Mean % Parasitemia: 4.10%
  Mean % Suppression: 56.0%
[8]
  Mean % Parasitemia: 24.28%
  Mean % Suppression: 31.6%
s.c., 2.0 mg/kg on days 1-3, 12th day
  % died: 20%
s.c., 2.0 mg/kg on days 1-3, 13th day
  % died: 20%
s.c., 2.0 mg/kg on days 1-3, 14th day
  % died: 40%
[9]
  Mean % Parasitemia: 0%
  Mean % Suppression: 100.0%
[10]
  Mean % Parasitemia: 0%
  Mean % Suppression: 100.0%
[11]
  Mean % Parasitemia: 0%
  Mean % Suppression: 100.0%
[12]
  Mean % Parasitemia: 0%
  Mean % Suppression: 100.0%
s.c., 10.0 mg/kg on days 1-3, 12th day
  % died: 0%
s.c., 10.0 mg/kg on days 1-3, 13th day
  % died: 0%
s.c., 10.0 mg/kg on days 1-3, 14th day
  % died: 0%
[13]
  Mean % Parasitemia: 5.00%
  Mean % Suppression: 4.8%
[14]
  Mean % Parasitemia: 7.20%
  Mean % Suppression: 1.4%
[15]
  Mean % Parasitemia: 9.20%
  Mean % Suppression: 1.1%
[16]
  Mean % Parasitemia: 35.40%
  Mean % Suppression: 0.3%
s.c., .15 mg/kg on days 1-3, 12th day
  % died: 20%
s.c., .15 mg/kg on days 1-3, 13th day
  % died: 40%
s.c., .15 mg/kg on days 1-3, 14th day
  % died: 80%
[17]
  Mean % Parasitemia: 5.00%
  Mean % Suppression: 4.8%
[18]
  Mean % Parasitemia: 6.25%
  Mean % Suppression: 14.4%
[19]
  Mean % Parasitemia: 9.10%
  Mean % Suppression: 2.2%
[20]
  Mean % Parasitemia: 35.10%
  Mean % Suppression: 1.1%
s.c., .20 mg/kg on days 1-3, 12th day
  % died: 40%
s.c., .20 mg/kg on days 1-3, 13th day
  % died: 60%
s.c., .20 mg/kg on days 1-3, 14th day
  % died: 60%
[21]
  Mean % Parasitemia: 4.75%
  Mean % Suppression: 9.5%
[22]
  Mean % Parasitemia: 6.00%
  Mean % Suppression: 17.8%
[23]
  Mean % Parasitemia: 8.30%
  Mean % Suppression: 10.8%
[24]
  Mean % Parasitemia: 33.40%
  Mean % Suppression: 5.9%
s.c., .30 mg/kg on days 1-3, 12th day
  % died: 20%
s.c., .30 mg/kg on days 1-3, 13th day
  % died: 40%
s.c., .30 mg/kg on days 1-3, 14th day
  % died: 80%
[25]
  Mean % Parasitemia: 4.75%
  Mean % Suppression: 9.5%
[26]
  Mean % Parasitemia: 5.20%
  Mean % Suppression: 28.8%
[27]
  Mean % Parasitemia: 7.00%
  Mean % Suppression: 24.7%
[28]
  Mean % Parasitemia: 31.40%
  Mean % Suppression: 11.5%
s.c., .50 mg/kg on days 1-3, 12th day
  % died: 0%
s.c., .50 mg/kg on days 1-3, 13th day
  % died: 20%
s.c., .50 mg/kg on days 1-3, 14th day
  % died: 80%
